Experiments:
[1] = target: Beta-3 adrenergic receptor (Homo sapiens) (UniProt P13945); settings: Compound concentration 10.0 uM
[2] = target: Protein-tyrosine kinase 2-beta (Homo sapiens) (UniProt Q14289); assay: PTK2B protein tyrosine kinase 2 beta Millipore kinase panel; settings: Compound concentration 10.0 uM
Rattus norvegicus [3] = species on record: Rattus norvegicus; assay: rSLC6/GABA Cerep panel; settings: Compound concentration 10.0 uM
[4] = target: Insulin-like growth factor 1 receptor (Homo sapiens) (UniProt P08069); assay: insulin-like growth factor 1 receptor Millipore kinase panel; settings: Compound concentration 10.0 uM
[5] = target: MAP kinase-activated protein kinase 2 (Homo sapiens) (UniProt P49137); assay: mitogen-activated protein kinase-activated protein kinase 2 Millipore kinase panel; settings: Compound concentration 10.0 uM
[6] = target: Serine/threonine-protein kinase PAK 6 (Homo sapiens) (UniProt Q9NQU5); assay: p21 protein -activated kinase 6 Millipore kinase panel; settings: Compound concentration 10.0 uM
[7] = target: High affinity cGMP-specific 3',5'-cyclic phosphodiesterase 9A (Homo sapiens, UniProt O76083); assay: hPDE9A PDE scan
[8] = target: Histamine H2 receptor (Homo sapiens) (UniProt P25021); assay: hH2 Cerep panel; settings: Compound concentration 10.0 uM
[9] = target: Serine/threonine-protein kinase Nek6 (Homo sapiens) (UniProt Q9HC98); assay: NIMA -related kinase 6 Millipore kinase panel; settings: Compound concentration 10.0 uM
[10] = target: Adenosine receptor A3 (Homo sapiens) (UniProt P0DMS8); assay: hA3 Cerep panel; settings: Compound concentration 10.0 uM
[11] = target: Serine/threonine-protein kinase 10 (Homo sapiens) (UniProt O94804); assay: serine/threonine kinase 10 Millipore kinase panel; settings: Compound concentration 10.0 uM
Rattus norvegicus [12] = species on record: Rattus norvegicus; assay: rNa channel Cerep panel; settings: Compound concentration 10.0 uM
[13] = target: 5-hydroxytryptamine receptor 2A (Homo sapiens) (UniProt P28223); assay: h5HT2A Cerep panel; settings: Compound concentration 10.0 uM
[14] = target: Cyclin-dependent kinase 2/cyclin E (Homo sapiens) (UniProt P24864+P24941+O96020); assay: cyclin-dependent kinase 2 /clyclinE Millipore kinase panel; assay type: protein-complex assay; settings: Compound concentration 10.0 uM
[15] = target: Fibroblast growth factor receptor 3 (Homo sapiens) (UniProt P22607); assay: fibroblast growth factor receptor 3 Millipore kinase panel; settings: Compound concentration 10.0 uM
[16] = target: Rod cGMP-specific 3',5'-cyclic phosphodiesterase subunit alpha (Homo sapiens, UniProt P16499); assay: hPDE6AB PDE scan
[17] = target: Serine/threonine-protein kinase NLK (Homo sapiens) (UniProt Q9UBE8); assay: nemo-like kinase Millipore kinase panel; settings: Compound concentration 10.0 uM
[18] = target: D(2) dopamine receptor (Homo sapiens) (UniProt P14416); assay: hD2S Cerep panel; settings: Compound concentration 10.0 uM
[19] = target: P2X receptor (Rattus norvegicus) (UniProt P51579+P49653+P51578+Q64663+P47824+P51577+P49654); assay: rP2X Cerep panel; assay type: protein assay; settings: Compound concentration 10.0 uM
[20] = target: Somatostatin receptor (Mus musculus) (UniProt P30935+O08858+P30875+P30873+P49660); assay: mSST Cerep panel; assay type: protein assay; settings: Compound concentration 10.0 uM
[21] = target: CDK9/cyclin T1 (Homo sapiens) (UniProt O60563+P50750); assay: cyclin-dependent kinase 9 / cyclinT1 Millipore kinase panel; assay type: protein-complex assay; settings: Compound concentration 10.0 uM
[22] = target: Serine/threonine-protein kinase WNK3 (Homo sapiens) (UniProt Q9BYP7); assay: WNK lysine deficient protein kinase 3 Millipore kinase panel; settings: Compound concentration 10.0 uM
[23] = target: Cyclin-dependent kinase 5/CDK5 activator 1 (Homo sapiens) (UniProt Q00535+Q15078); assay: cyclin-dependent kinase 5 / p35 Millipore kinase panel; assay type: protein-complex assay; settings: Compound concentration 10.0 uM
[24] = target: Fibroblast growth factor receptor 2 (Homo sapiens) (UniProt P21802); assay: fibroblast growth factor receptor 2 Millipore kinase panel; settings: Compound concentration 10.0 uM
[25] = target: Protein kinase C zeta type (Homo sapiens) (UniProt Q05513); assay: protein kinase C, zeta Millipore kinase panel; settings: Compound concentration 10.0 uM
[26] = target: Dual specificity mitogen-activated protein kinase kinase 6 (Homo sapiens) (UniProt P52564); assay: mitogen-activated protein kinase kinase 6 Millipore kinase panel; settings: Compound concentration 10.0 uM
[27] = target: Tyrosine-protein kinase TXK (Homo sapiens) (UniProt P42681); assay: TXK tyrosine kinase Millipore kinase panel; settings: Compound concentration 10.0 uM
[28] = target: Hepatocyte growth factor receptor (Homo sapiens) (UniProt P08581); assay: met proto-oncogene Millipore kinase panel; settings: Compound concentration 10.0 uM
[29] = target: MAP kinase-activated protein kinase 5 (Homo sapiens) (UniProt Q8IW41); assay: mitogen-activated protein kinase-activated protein kinase 5 Millipore kinase panel; settings: Compound concentration 10.0 uM
[30] = target: Tyrosine-protein kinase SYK (Homo sapiens) (UniProt P43405); assay: spleen tyrosine kinase Millipore kinase panel; settings: Compound concentration 10.0 uM
[31] = target: T1, 5-hydroxytryptamine receptor 2C (Homo sapiens) (UniProt P28335); assay: h5HT2C Cerep panel; settings: Compound concentration 10.0 uM
T1 sequence (whole entry): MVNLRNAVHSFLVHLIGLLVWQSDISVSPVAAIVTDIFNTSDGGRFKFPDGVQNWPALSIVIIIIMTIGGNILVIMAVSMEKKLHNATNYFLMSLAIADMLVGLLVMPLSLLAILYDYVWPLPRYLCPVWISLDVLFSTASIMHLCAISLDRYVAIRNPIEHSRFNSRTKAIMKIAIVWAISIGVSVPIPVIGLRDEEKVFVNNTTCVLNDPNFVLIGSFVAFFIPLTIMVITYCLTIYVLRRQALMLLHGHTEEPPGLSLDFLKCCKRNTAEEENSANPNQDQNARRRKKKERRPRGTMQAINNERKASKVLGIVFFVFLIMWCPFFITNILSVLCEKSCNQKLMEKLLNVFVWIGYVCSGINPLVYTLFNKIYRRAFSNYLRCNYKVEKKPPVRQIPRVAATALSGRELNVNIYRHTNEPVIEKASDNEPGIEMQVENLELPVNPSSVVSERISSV

[32] = target: cAMP and cAMP-inhibited cGMP 3',5'-cyclic phosphodiesterase 10A (Homo sapiens, UniProt Q9Y233); assay: hPDE10A2 PDE scan
[33] = target: Serine/threonine-protein kinase Nek7 (Homo sapiens) (UniProt Q8TDX7); assay: NIMA -related kinase 7 Millipore kinase panel; settings: Compound concentration 10.0 uM
[34] = target: Serine/threonine-protein kinase MARK2 (Homo sapiens) (UniProt Q7KZI7); assay: MAP/microtubule affinity-regulating kinase 2 Millipore kinase panel; settings: Compound concentration 10.0 uM
[35] = target: Serine/threonine-protein kinase 24 (Homo sapiens) (UniProt Q9Y6E0); assay: serine/threonine kinase 24 Millipore kinase panel; settings: Compound concentration 10.0 uM
[36] = target: Tyrosine-protein kinase HCK (Homo sapiens) (UniProt P08631); assay: hemopoietic cell kinase Millipore kinase panel; settings: Compound concentration 10.0 uM
[37] = target: Tyrosine-protein kinase FRK (Homo sapiens) (UniProt P42685); assay: fyn-related kinase Millipore kinase panel; settings: Compound concentration 10.0 uM
[38] = target: Serine/threonine-protein kinase Nek11 (Homo sapiens) (UniProt Q8NG66); assay: NIMA -related kinase 11 Millipore kinase panel; settings: Compound concentration 10.0 uM
[39] = target: Tyrosine-protein kinase ITK/TSK (Homo sapiens) (UniProt Q08881); assay: IL2-inducible T-cell kinase Millipore kinase panel; settings: Compound concentration 10.0 uM
[40] = target: Muscle, skeletal receptor tyrosine-protein kinase (Homo sapiens) (UniProt O15146); assay: muscle, skeletal, receptor tyrosine kinase Millipore kinase panel; settings: Compound concentration 10.0 uM
[41] = target: RAC-gamma serine/threonine-protein kinase (Homo sapiens) (UniProt Q9Y243); assay: v-akt murine thymoma viral oncogene homolog 3 Millipore kinase panel; settings: Compound concentration 10.0 uM
[42] = target: Ribosomal protein S6 kinase alpha-4 (Homo sapiens) (UniProt O75676); assay: ribosomal protein S6 kinase, 90kDa, polypeptide 4 Millipore kinase panel; settings: Compound concentration 10.0 uM
[43] = target: Alpha-2A adrenergic receptor (Rattus norvegicus) (UniProt P22909); assay: rAa2 Cerep panel; settings: Compound concentration 10.0 uM

Chain of Fibroblast growth factor receptor 3 (Homo sapiens) (P22607 23-806 limits assumed): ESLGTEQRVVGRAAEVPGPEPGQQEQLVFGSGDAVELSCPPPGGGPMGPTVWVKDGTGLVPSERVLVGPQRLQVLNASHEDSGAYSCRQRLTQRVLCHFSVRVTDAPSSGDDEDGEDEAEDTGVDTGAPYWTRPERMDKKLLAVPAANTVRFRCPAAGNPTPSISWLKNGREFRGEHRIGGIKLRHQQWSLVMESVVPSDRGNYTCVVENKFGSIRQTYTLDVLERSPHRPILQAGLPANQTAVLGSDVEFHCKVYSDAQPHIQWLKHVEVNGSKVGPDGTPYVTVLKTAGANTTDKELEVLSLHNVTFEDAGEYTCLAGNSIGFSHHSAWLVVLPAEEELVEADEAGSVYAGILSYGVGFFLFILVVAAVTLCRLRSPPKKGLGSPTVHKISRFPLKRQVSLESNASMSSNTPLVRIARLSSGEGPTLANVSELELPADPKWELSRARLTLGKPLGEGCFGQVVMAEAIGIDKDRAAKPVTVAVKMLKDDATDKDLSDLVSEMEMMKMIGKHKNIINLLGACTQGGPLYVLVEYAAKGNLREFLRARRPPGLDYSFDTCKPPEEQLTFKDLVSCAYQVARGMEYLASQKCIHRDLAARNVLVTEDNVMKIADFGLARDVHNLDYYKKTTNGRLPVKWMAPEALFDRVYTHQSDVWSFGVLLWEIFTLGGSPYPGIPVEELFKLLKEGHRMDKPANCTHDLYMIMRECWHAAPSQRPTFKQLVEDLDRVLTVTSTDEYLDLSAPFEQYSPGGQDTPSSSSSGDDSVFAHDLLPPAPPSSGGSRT
Chain of Protein-tyrosine kinase 2-beta (Homo sapiens) (Q14289 whole entry, looked up): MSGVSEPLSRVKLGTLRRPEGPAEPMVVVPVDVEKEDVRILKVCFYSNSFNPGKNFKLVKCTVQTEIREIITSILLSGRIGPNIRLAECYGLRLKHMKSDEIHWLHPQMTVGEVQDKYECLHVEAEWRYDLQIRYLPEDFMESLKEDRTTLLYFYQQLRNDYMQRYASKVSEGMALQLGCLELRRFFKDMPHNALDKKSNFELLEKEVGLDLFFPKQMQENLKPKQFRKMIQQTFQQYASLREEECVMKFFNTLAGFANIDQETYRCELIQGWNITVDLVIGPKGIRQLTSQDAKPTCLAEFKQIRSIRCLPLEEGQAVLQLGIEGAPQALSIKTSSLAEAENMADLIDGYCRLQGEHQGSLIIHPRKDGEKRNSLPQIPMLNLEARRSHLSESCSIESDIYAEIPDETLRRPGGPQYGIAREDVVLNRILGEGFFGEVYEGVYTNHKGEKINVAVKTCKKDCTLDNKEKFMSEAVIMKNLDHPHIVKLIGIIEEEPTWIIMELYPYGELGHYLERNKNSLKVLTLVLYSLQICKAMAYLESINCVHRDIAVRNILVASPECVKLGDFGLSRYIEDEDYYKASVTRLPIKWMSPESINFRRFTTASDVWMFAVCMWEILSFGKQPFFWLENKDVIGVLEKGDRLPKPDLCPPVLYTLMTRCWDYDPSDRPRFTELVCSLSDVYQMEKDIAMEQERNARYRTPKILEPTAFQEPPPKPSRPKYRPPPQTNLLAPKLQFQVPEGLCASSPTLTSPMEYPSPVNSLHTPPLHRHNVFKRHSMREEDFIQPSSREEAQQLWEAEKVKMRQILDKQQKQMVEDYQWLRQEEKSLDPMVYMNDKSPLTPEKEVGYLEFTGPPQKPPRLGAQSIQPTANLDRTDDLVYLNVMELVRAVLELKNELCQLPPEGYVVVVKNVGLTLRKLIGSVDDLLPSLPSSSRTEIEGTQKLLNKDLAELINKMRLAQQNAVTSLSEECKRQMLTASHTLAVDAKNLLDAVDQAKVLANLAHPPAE
Chain of cAMP and cAMP-inhibited cGMP 3',5'-cyclic phosphodiesterase 10A (Q9Y233 whole entry): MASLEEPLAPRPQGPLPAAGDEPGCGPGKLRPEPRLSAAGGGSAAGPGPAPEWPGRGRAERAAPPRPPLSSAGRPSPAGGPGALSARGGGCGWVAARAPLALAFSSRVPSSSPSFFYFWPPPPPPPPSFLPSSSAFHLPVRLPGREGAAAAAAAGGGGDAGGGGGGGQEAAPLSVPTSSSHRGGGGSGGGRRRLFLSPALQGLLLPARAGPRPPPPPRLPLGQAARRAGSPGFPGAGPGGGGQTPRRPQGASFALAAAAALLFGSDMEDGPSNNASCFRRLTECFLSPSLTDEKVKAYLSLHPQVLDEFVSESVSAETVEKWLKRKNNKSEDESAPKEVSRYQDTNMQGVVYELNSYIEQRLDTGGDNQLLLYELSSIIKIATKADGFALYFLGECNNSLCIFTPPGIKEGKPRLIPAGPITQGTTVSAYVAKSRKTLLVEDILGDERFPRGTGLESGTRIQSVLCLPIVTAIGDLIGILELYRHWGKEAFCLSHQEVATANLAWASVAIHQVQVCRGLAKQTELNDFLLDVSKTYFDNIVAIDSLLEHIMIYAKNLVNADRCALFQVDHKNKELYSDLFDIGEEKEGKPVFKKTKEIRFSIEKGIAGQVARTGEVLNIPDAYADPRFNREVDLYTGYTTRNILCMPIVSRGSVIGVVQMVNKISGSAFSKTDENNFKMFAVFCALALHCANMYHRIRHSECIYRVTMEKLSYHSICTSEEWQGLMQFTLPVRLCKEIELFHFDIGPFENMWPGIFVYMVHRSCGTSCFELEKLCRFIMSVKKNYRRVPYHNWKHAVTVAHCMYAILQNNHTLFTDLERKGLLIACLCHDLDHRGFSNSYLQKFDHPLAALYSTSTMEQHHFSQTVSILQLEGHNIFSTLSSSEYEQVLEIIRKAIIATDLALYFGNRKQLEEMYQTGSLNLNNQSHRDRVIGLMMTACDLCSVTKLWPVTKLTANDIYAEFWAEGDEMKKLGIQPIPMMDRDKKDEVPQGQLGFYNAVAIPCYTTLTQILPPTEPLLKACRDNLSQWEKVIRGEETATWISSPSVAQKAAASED
Chain of Serine/threonine-protein kinase 10 (Homo sapiens) (O94804 whole entry, looked up): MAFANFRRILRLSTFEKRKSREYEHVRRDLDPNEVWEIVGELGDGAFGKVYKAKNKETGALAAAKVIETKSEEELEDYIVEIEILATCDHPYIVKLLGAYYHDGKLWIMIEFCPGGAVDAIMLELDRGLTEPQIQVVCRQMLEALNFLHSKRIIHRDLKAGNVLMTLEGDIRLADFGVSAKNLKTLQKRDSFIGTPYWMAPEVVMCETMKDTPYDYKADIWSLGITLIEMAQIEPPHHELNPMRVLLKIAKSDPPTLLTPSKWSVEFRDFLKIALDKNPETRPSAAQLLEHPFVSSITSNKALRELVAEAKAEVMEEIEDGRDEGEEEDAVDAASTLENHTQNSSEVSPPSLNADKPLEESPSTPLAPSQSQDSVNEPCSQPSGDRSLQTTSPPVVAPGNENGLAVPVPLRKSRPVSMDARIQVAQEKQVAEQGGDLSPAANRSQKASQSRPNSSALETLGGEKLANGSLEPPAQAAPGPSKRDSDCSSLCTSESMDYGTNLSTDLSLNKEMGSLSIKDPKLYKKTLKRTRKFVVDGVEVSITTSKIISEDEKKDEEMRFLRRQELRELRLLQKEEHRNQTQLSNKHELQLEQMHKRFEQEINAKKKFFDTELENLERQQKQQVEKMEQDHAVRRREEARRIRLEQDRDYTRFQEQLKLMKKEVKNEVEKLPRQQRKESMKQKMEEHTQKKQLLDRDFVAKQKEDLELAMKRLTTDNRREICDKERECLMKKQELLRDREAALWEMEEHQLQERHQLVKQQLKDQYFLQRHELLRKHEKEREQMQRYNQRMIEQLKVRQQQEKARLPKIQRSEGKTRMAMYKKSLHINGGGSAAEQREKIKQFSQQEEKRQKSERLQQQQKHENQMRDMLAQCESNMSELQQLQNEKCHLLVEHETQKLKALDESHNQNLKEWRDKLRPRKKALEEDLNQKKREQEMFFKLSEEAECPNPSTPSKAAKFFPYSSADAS
Chain of MAP kinase-activated protein kinase 2 (Homo sapiens) (P49137 whole entry, looked up): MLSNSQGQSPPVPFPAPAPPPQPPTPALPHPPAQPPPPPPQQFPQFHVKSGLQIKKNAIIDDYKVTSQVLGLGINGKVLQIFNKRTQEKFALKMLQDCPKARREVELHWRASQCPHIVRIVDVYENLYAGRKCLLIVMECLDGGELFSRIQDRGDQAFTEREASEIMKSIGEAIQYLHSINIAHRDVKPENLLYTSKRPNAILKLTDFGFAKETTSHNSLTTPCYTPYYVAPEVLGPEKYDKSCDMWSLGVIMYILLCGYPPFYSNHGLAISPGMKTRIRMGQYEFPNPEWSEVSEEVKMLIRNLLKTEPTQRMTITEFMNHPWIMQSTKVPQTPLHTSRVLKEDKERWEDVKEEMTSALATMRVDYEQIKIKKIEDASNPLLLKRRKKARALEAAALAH
Chain of Protein kinase C zeta type (Homo sapiens) (Q05513 whole entry): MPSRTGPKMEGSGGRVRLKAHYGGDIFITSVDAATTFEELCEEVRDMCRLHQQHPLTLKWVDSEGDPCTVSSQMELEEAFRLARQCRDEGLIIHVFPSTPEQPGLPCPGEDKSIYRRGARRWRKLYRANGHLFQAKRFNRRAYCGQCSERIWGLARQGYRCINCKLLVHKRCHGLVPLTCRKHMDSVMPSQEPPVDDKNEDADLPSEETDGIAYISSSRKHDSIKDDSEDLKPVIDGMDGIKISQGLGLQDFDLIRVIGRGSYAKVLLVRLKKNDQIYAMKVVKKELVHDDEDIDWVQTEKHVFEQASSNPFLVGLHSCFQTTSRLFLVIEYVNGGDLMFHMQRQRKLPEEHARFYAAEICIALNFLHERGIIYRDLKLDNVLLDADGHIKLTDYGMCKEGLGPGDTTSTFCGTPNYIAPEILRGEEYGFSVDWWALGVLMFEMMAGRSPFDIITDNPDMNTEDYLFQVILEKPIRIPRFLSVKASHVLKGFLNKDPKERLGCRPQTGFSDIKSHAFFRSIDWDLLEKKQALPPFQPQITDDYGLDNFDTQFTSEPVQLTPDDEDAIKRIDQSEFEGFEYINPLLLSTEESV

`c1ccc(C2CCN(c3cnc4c(N5CCOCC5)nccn34)CC2)cc1` was tested, and the inhibition [1] was 2.32%.

With `COCCc1ccc(-c2c(C)nc3c(N4CCOCC4)ccnn23)cn1` [JNJ-42396302] the inhibition [2] was -4%, the effect (Rattus norvegicus [3]) was -6% and the inhibition [4] was 1%. It also gave an inhibition [5] of -5%, an inhibition [6] of 5% and a Ki [7] of 33 µM. For the same molecule, the effect [8] was 18.1%, the inhibition [9] was 1% and the effect [10] was 8.4%. For the same molecule, the inhibition [11] was 0%, the effect (Rattus norvegicus [12]) was -5.55% and the effect [13] was 4.05%. For the same molecule, the inhibition [14] was 1%, the inhibition [15] was -2% and the Ki [16] was 85 µM. It also gave an inhibition [17] of 2%, an effect [18] of 1.7% and an effect [19] of 6.95%. It also gave an effect [20] of 2.8%, an inhibition [21] of -1% and an inhibition [22] of 0%. For the same molecule, the inhibition [23] was -5%, the inhibition [24] was -5% and the inhibition [25] was 5%. The inhibition [26] was -5%, the inhibition [27] was 6% and the inhibition [28] was -6%. It also gave an inhibition [29] of 7%, an inhibition [30] of -7% and an effect [31] of -1.95%. For the same molecule, the Ki [32] was 0.013 µM, the inhibition [33] was 2% and the inhibition [34] was 9%. For the same molecule, the inhibition [35] was 9%, the inhibition [36] was -2% and the inhibition [37] was -7%. It also gave an inhibition [38] of -2%, an inhibition [39] of 1% and an inhibition [40] of -6%. The inhibition [41] was 24%, the inhibition [42] was 2% and the effect [43] was 5.2%.

Reference: ChEMBL document CHEMBL4800727 (2021)
